Data published in publication PMC11672137, “High-Affinity Lectin Ligands Enable the Detection of Pathogenic Pseudomonas aeruginosa Biofilms: Implications for Diagnostics and Therapy” (JACS Au, 2024).

Experiments:
LecB = molecular target: T1, LecB (Pseudomonas aeruginosa, UniProt Q9HYN5); assay: Competitive binding assay based on fluorescence polarization, LecB
T1 construct: made in house
Experimental: LecA competitive binding assay was performed in presence of 2% DMSO, whereas LecB competitive binding assay had less than 0.5% DMSO present. In short, the compound dilution series were prepared in 96 well plates. 10 µL of each dilution in triplicates were mixed with 10 µL of master mix (40 µM LecA, 20 nM galactose-fluorescein reporter ligand S38 or 300 nM LecB and 20 nM S39 in TBS/Ca2+ buffer, Figure S3) in 384-well microtiter plates (Greiner Bio-One, Germany, cat no 781900). The plates were centrifuged (1 min, 500 g), sealed (EASYseal, Greiner Bio-One, cat no 676001) and incubated for 1 h in case of LecA and 6 h in case of LecB in a dark wet chamber under gentle shaking. Fluorescence was measured on a
PheraStar FS plate reader (BMG Labtech GmbH, Germany) with excitation filters at 485 nm and emission filters at 535 nm. The measured intensities were reduced by the blank values (protein in TBS/Ca2+ buffer) and analysed with MARS Data Analysis Software (BMG Labtech GmbH, Germany). IC50 values were determined by the four-parameter variable slope model with the minimum and maximum limits of the fit fixed according to the controls in each assay

[1] = tested on: P. aeruginosa PAO1 biofilms; assay: In vitro biofilm staining under flow conditions, injection method; assay type: cell-based, Pseudomonas aeruginosa; details: 17 μM in channel, 10 min incubation, then flow 3 mL/h for 10-20 min
Experimental: (§1) P. aeruginosa biofilms were grown under flow conditions and observed by fluorescence microscopy in analogy to Ghanbari et al.[66] To this end, P. aeruginosa PAO1 expressing the red fluorescent protein mCherry[56] was diluted to an OD600 nm of 0.1 and injected into the microfluidics device. After a 30-min settling period, biofilms were grown under a constant laminar flow rate of 3 mL/h per channel. Following 48 h of incubation at 30 °C, dense and mature P. aeruginosa PAO1 biofilms were observed, which were then further used for analysis of the imaging probes.
Two different staining methods were evaluated for the imaging of P. aeruginosa PAO1 biofilms: (I) direct injection of the imaging compounds into the flow system or (II) compound supplementation into the medium and gradual accumulation at the biofilm (Figure S18). […] The flow of compounds 17 and 24 and their arrival in the flow cells were monitored using a fluorescence microscope attached to the flow system. […]
Figure 4 Staining of P. aeruginosa PAO1 biofilms under flow following the injection method. […] Pictures of the same aggregates were recorded prior to compound injection (t−10), during a 10 min incubation period without flow (t0) and during the wash period (constant flow, 3 mL/h) at different time points t5, t10, t15, and t20 (5, 10, 15, and 20 min) using a fluorescence microscope. […]

[2] = tested on: P. aeruginosa PAO1 biofilms; assay: In vitro biofilm staining under flow conditions, compound supplementation to the medium; assay type: cell-based, Pseudomonas aeruginosa; details: 500 nM in medium, 4 h, 3 mL/h, fluorescence microscope
Experimental: as §1
To circumvent these technical drawbacks, the addition of compounds to the medium reservoir and retention at the biofilm was pursued. Imaging compounds were added to the medium reservoirs at a concentration of 500 nM, which were continuously pumped (3 mL/h) through the flow cell for 4 h. Compound accumulation at mature P. aeruginosa biofilms was immediately analyzed using fluorescence microscopy. Afterwards, the medium was exchanged, and the biofilms were washed for 30 min (3 mL/h, no compound) to monitor the retention (Figure 5). Furthermore, an analysis using CLSM was also performed after 4 h of accumulation without washing (Figures 5 and S22).
Figure 5 Staining of P. aeruginosa PAO1 biofilms grown under flow conditions with compound supplementation to the medium. Biofilm staining with (A) fluorescein divalent probe 17, (B) fluorescein control 24, (C) BODIPY divalent probe 19, and (D) BDP FL azide control 18 was monitored after 4 h of accumulation under constant flow (3 mL/h) of LB media containing 500 nM of respective compound. Retention of imaging compounds is shown after a subsequent wash period for 30 min with medium (3 mL/h, no compound). Images were recorded by using a fluorescence microscope. CLSM was performed for (E) BODIPY divalent probe 19 and the control (F) BDP FL azide 18 after 4 h of accumulation. Green signal originates from fluorescently labeled probes 17 and 19 and controls 24 and 18. P. aeruginosa constitutively expressing mCherry from pMP7605^56 is shown in red. Z-Stack size, 2 μm. Scale bar = 50 μm.
In vitro biofilm staining under flow conditions
The flow cell experiment was set up in analogy to Ghanbari et al. and in this study, optimized and established for biofilm staining.25 In principle, the experiment is based on an inlet connected to a medium source, a peristaltic pump providing constant medium flow, a flow chamber enabling analysis of bacterial growth and an outlet (waste container/bottle).
The medium used in the flow system was LB diluted by factor 5 containing 60 µg/mL
Gm. Silicone tubings 1.6 mm (ibidi, Germany) were used transporting medium from inlet to the peristaltic pump (Watson-Marlow Fluid Technology Solutions). Stopper hoses (CarlRoth) placed in peristaltic pump were coupled to silicone tubes via connectors (ibidi, Germany).
Stopper hoses are connected to bubble traps (obtained by Claus Sternberg, DTU Copenhagen) via 0.8 mm silicone tubing (ibidi, Germany). Bubble traps were used to remove air from the medium flow and to avoid biofilm disruption. Downstream from the bubble traps, the flow cell (μ-Slide VI 0.4 ibiTreat, ibidi, Germany) was placed into the system and connected to 1.6 mm silicone tubes (ibidi, Germany). The outlet is leading the medium from flow chamber to a waste […]
In order to inoculate the flow cell with P. aeruginosa PAO1 mCherry (pMP7605)23 the silicone tubes upstream and downstream of the flow chamber were pinched off by using commercial plastic clamps. The medium flow was stopped and the flow cell was inoculated by injecting 300 µL of the bacterial suspension (OD600nm of 0.1) into the silicone tubing upstream of the flow chamber. For this, a cannula (0.30 x 12 mm, Sterican) was used. The injection point was sealed with silicone glue. After bacterial settling time of 30 min, the flow was started again and clamps were removed. Growth temperature was regulated by using a heat system (ibidi, […]
Germany). […]

LecA [3] = molecular target: T2, LecA (Pseudomonas aeruginosa, UniProt Q05097); details: read-out: Kd by ITC; cited from earlier work
T2 construct: made in house
T2 sequence (Q05097 whole entry): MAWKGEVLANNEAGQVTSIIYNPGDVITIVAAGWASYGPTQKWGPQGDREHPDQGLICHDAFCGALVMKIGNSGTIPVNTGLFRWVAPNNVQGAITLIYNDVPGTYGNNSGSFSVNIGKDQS

LecA [4] = molecular target: T2, LecA; assay: Competitive binding assay based on fluorescence polarization, LecA; details: LecA 20 µM, reporter ligand S38, 2% DMSO; read-out: IC50 (competitive binding, FP)
Experimental: Next, binding of the optimized divalent ligand 17 and its synthetic precursor 16 to LecA was evaluated by fluorescence polarization-based (FP) assays,[47] SPR, and ITC. […] Therefore, fluorescent ligand 17 was analyzed in a direct binding experiment by FP. […] The dissociation constants for 16 were 47.2 ± 11.3 nM (ITC) and 47.8 ± 44.1 nM (steady-state SPR), while for 17, the values were 64.1 ± 31.1 nM and 79.3 ± 24.9 nM (steady-state SPR). For the SPR experiments, Kd was also determined by single-cycle kinetic analysis resulting in approximately five times higher affinity, but the data have limited reliability due to suboptimal fit for the kinetic curves (Figures S13B and S14).[58]−[60] […]
137 mM NaCl, 2.6 mM KCl at pH 7.4 supplemented with 1 mM CaCl2). Protein concentration was determined by UV spectroscopy at 280 nm using a molar extinction coefficient of 27 960 M-1 cm-1 for LecA and 6 990 M-1 cm-1 for LecB.
All synthesized alkyne precursors (S5m, S5p, S6m, S6p, S11, 25, S16, S22 and S24) were analysed in the previously established competitive binding assays based on fluorescence polarization (Figure S2).18,19 Galactose-based compounds (S5m, S5p, S6m, S6p, S11) were evaluated against LecA and C-glycoside-based compounds […] and S16 against LecB. […]
PheraStar FS plate reader (BMG Labtech GmbH, Germany) with excitation filters at 485 nm and emission filters at 535 nm. […]

T1 sequence (Q9HYN5 entry or part of it): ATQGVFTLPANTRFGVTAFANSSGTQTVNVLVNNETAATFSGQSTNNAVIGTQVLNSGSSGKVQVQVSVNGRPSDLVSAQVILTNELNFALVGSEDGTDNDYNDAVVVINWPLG

C#Cc1ccc(S(=O)(=O)NC[C@H]2O[C@@H](C)[C@@H](O)[C@@H](O)[C@@H]2O)s1 [compound 23]
IC50 (LecB): 2.4 ± 0.5 µM

O=C1OC2(c3ccc(O)cc3Oc3cc(O)ccc32)c2ccccc21 [compound 24, fluorescein, reference compound]
Retention of fluorescence at biofilm during wash [1]: completely disappeared after 10 min | Biofilm staining after accumulation [2]: did not result in any observable staining

OC[C@H]1O[C@@H](Oc2ccccc2)[C@H](O)[C@@H](O)[C@H]1O [compound 1, phenyl β-D-galactoside]
Kd (LecA [3]): 8.8 µM

O=[N+]([O-])c1ccc(O[C@@H]2O[C@H](CO)[C@H](O)[C@H](O)[C@H]2O)cc1 [para-nitrophenyl β-D-galactoside]
IC50 (LecA [4]): 39.7 ± 11.5 µM
